Experimental data published in US10975084B2, “KDM5 inhibitors” (Merck Sharp & Dohme Corp., priority 2016, dated 2021).
pIC50: −log10 of the molar value.

Molecular target: KDM5B (Homo sapiens (Human), UniProt Q9UGL1)
Assay: KDM5B TR-FRET Enzyme Activity Assay
Format: biochemical
Conditions: LANCE TR-FRET; 5 nM full-length recombinant KDM5B; ten point titration 100000 nM to 5.08 nM
How it was run: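 Full-length KDM5B from Sf21 cells (5 nM) was preincubated 30 min with compound in HEPES pH 7.3 buffer with ascorbate and 2 μM Fe(II). Reaction with 500 nM biotinylated H3K4Me3 peptide and 500 nM α-ketoglutarate ran 60 min. Product was detected by TR-FRET (Eu-anti-H3K4Me1-2/streptavidin-Dylight 650, 665/615 ratio); IC50 came from a 4-parameter fit.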

Sequence of KDM5B (Q9UGL1 whole entry): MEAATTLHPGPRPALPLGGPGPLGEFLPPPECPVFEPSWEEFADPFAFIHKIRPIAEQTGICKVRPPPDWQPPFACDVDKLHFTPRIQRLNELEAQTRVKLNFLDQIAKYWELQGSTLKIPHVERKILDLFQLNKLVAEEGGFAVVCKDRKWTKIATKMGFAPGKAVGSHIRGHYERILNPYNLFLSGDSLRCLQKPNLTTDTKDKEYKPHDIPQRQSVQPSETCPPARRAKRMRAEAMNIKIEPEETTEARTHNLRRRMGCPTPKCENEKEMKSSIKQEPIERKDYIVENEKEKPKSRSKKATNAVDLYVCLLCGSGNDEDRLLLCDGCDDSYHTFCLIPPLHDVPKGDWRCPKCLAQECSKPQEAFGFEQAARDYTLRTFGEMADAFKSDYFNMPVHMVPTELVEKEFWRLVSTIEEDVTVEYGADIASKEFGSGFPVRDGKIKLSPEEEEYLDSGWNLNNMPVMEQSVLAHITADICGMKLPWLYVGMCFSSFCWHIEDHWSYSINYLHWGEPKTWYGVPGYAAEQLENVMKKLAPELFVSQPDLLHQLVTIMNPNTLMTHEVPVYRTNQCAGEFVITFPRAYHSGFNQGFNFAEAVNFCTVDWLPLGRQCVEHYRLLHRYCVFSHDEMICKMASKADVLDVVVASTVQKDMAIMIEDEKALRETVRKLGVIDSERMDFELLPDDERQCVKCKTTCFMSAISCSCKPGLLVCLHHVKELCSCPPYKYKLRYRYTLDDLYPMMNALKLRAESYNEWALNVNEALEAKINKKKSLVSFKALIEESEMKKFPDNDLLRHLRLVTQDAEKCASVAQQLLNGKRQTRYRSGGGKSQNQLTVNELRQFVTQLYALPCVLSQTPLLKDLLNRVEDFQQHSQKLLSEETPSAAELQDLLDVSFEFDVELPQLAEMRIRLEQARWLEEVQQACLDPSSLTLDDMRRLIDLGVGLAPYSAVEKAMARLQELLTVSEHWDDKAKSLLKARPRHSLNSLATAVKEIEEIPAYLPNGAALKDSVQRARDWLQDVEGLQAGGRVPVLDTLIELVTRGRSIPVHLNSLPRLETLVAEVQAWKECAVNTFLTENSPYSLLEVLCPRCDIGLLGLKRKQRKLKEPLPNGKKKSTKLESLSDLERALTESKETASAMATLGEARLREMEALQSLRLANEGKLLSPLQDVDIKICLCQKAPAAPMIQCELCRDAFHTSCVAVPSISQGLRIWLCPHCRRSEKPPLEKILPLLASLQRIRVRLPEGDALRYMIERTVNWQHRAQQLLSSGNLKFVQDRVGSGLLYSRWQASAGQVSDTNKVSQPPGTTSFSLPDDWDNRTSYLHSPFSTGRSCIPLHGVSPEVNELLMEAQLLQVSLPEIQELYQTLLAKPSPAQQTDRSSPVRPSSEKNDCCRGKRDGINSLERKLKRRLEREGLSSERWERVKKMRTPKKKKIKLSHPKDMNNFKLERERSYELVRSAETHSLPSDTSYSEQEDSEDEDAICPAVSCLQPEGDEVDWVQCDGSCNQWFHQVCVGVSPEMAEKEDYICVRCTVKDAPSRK

Row | SMILES | pIC50
1 | CC(C)c1c(-c2ccc(CO)cc2)[nH]c2ncnn2c1=O [Example 11-60, 5-[4-(hydroxymethyl)phenyl]-6-(1-methylethyl)[1,2,4]triazolo[1,5-a]pyrimidin-7(4H)-one] | 7.87
2 | Cc1nn(C)c(C)c1-c1[nH]c2ncnn2c(=O)c1C(C)C [Example 11-61, 6-(1-methylethyl)-5-(1,3,5-trimethyl-1H-pyrazol-4-yl)[1,2,4]triazolo[1,5-a]pyrimidin-7(4H)-one] | 5.66
3 | CC(C)c1c(C2=CCC(C)(C)CC2)[nH]c2ncnn2c1=O [Example 11-62, 5-(4,4-dimethylcyclohex-1-en-1-yl)-6-(1-methylethyl)[1,2,4]triazolo[1,5-a]pyrimidin-7(4H)-one] | 5.99
4 | CC(C)c1c(-c2ccc(Cl)cc2)[nH]c2ncnn2c1=O [Example 11-63, 5-(4-chlorophenyl)-6-(1-methylethyl)[1,2,4]triazolo[1,5-a]pyrimidin-7(4H)-one] | 7.15
5 | CC(C)c1c(-c2cccc(Cl)c2)[nH]c2ncnn2c1=O [Example 11-64, 5-(3-chlorophenyl)-6-(1-methylethyl)[1,2,4]triazolo[1,5-a]pyrimidin-7(4H)-one] | 7.04
6 | CC(C)c1c(-c2ccccc2Cl)[nH]c2ncnn2c1=O [Example 11-65, 5-(2-chlorophenyl)-6-(1-methylethyl)[1,2,4]triazolo[1,5-a]pyrimidin-7(4H)-one] | 5.47
7 | CC(C)c1c(-c2cccc(CC#N)c2)[nH]c2ncnn2c1=O [Example 11-66, {3-[6-(1-methylethyl)-7-oxo-4,7-dihydro[1,2,4]triazolo[1,5-a]pyrimidin-5-yl]phenyl}acetonitrile] | 8.05
8 | CC(C)c1c(-c2ccc(CC#N)cc2)[nH]c2ncnn2c1=O [Example 11-67, {4-[6-(1-methylethyl)-7-oxo-4,7-dihydro[1,2,4]triazolo[1,5-a]pyrimidin-5-yl]phenyl}acetonitrile] | 7.74
9 | CC(C)c1c(-c2cnc3[nH]ccc3c2)[nH]c2ncnn2c1=O [Example 11-68, 6-(1-methylethyl)-5-(1H-pyrrolo[2,3-b]pyridin-5-yl)[1,2,4]triazolo[1,5-a]pyrimidin-7(4H)-one] | 7.70
10 | CC(C)c1c(-c2ccc3nccn3c2)[nH]c2ncnn2c1=O [Example 11-69, 5-imidazo[1,2-a]pyridin-6-yl-6-(1-methylethyl)[1,2,4]triazolo[1,5-a]pyrimidin-7(4H)-one] | 7.59
11 | CC(C)c1c(-c2ccc3nc[nH]c3c2)[nH]c2ncnn2c1=O [Example 11-70, 5-(1H-benzimidazol-6-yl)-6-(1-methylethyl)[1,2,4]triazolo[1,5-a]pyrimidin-7(4H)-one] | 7.87
12 | CC(C)c1c(-c2cccc3[nH]ncc23)[nH]c2ncnn2c1=O [Example 11-71, 5-(1H-indazol-4-yl)-6-(1-methylethyl)[1,2,4]triazolo[1,5-a]pyrimidin-7(4H)-one] | 6.68
13 | CC(C)c1c(-c2cnn3ncccc23)[nH]c2ncnn2c1=O [Example 11-72, 6-(1-methylethyl)-5-pyrazolo[1,5-b]pyridazin-3-yl[1,2,4]triazolo[1,5-a]pyrimidin-7(4H)-one] | 7.70
14 | CC(C)c1c(-c2ccc3cccnc3c2)[nH]c2ncnn2c1=O [Example 11-73, 6-(1-methylethyl)-5-quinolin-7-yl[1,2,4]triazolo[1,5-a]pyrimidin-7(4H)-one] | 7.57
15 | CC(C)c1c(-c2ccc3ncccc3c2)[nH]c2ncnn2c1=O [Example 11-74, 6-(1-methylethyl)-5-quinolin-6-yl[1,2,4]triazolo[1,5-a]pyrimidin-7(4H)-one] | 7.83
16 | CC(C)c1c(-c2ccnc3ccccc23)[nH]c2ncnn2c1=O [Example 11-75, 6-(1-methylethyl)-5-quinolin-4-yl[1,2,4]triazolo[1,5-a]pyrimidin-7(4H)-one] | 6.04
17 | CC(C)c1c(-c2cnc3ccccc3c2)[nH]c2ncnn2c1=O [Example 11-76, 6-(1-methylethyl)-5-quinolin-3-yl[1,2,4]triazolo[1,5-a]pyrimidin-7(4H)-one] | 7.62
18 | CC(C)c1c(-c2cc3ccccc3n2C)[nH]c2ncnn2c1=O [Example 11-77, 6-(1-methylethyl)-5-(1-methyl-1H-indol-2-yl)[1,2,4]triazolo[1,5-a]pyrimidin-7(4H)-one] | 5.90
19 | CC(C)c1c(-c2ccc3c(cnn3C)c2)[nH]c2ncnn2c1=O [Example 11-78, 6-(1-methylethyl)-5-(1-methyl-1H-indazol-5-yl)[1,2,4]triazolo[1,5-a]pyrimidin-7(4H)-one] | 7.98
20 | COC(=O)c1ccc(-c2[nH]c3ncnn3c(=O)c2C(C)C)cc1 [Example 11-79, methyl 4-[6-(1-methylethyl)-7-oxo-4,7-dihydro[1,2,4]triazolo[1,5-a]pyrimidin-5-yl]benzoate] | 7.71
21 | COC(=O)c1cccc(-c2[nH]c3ncnn3c(=O)c2C(C)C)c1 [Example 11-80, methyl 3-[6-(1-methylethyl)-7-oxo-4,7-dihydro[1,2,4]triazolo[1,5-a]pyrimidin-5-yl]benzoate] | 7.47
22 | CC(C)c1c(C2=CC(C)(C)OC(C)(C)C2)[nH]c2ncnn2c1=O [Example 11-81, 6-(1-methylethyl)-5-(2,2,6,6-tetramethyl-3,6-dihydro-2H-pyran-4-yl)[1,2,4]triazolo[1,5-a]pyrimidin-7(4H)-one] | 6.51
23 | CC(C)c1c(-c2ccc(-n3cccn3)cc2)[nH]c2ncnn2c1=O [Example 11-82, 6-(1-methylethyl)-5-[4-(1H-pyrazol-1-yl)phenyl][1,2,4]triazolo[1,5-a]pyrimidin-7(4H)-one] | 8.06
24 | CC(C)c1c(-c2cccc(-n3cccn3)c2)[nH]c2ncnn2c1=O [Example 11-83, 6-(1-methylethyl)-5-[3-(1H-pyrazol-1-yl)phenyl][1,2,4]triazolo[1,5-a]pyrimidin-7(4H)-one] | 7.67
25 | CC(C)c1c(-c2ccc(C(F)(F)F)cc2)[nH]c2ncnn2c1=O [Example 11-84, 6-(1-methylethyl)-5-[4-(trifluoromethyl)-phenyl][1,2,4]triazolo[1,5-a]pyrimidin-7(4H)-one] | 7.17
26 | CC(C)c1c(-c2cccc(C(F)(F)F)c2)[nH]c2ncnn2c1=O [Example 11-85, 6-(1-methylethyl)-5-[3-(trifluoromethyl)phenyl] [1,2,4]triazolo[1,5-a]pyrimidin-7(4H)-one] | 7.38
27 | CC(C)c1c(-c2ccc(C(=O)N(C)C)cc2)[nH]c2ncnn2c1=O [Example 11-86, N,N-dimethyl-4-[6-(1-methylethyl)-7-oxo-4,7-dihydro[1,2,4]triazolo[1,5-a]pyrimidin-5-yl]benzamide] | 7.90
28 | CC(C)c1c(-c2cc(C(F)(F)F)nn2C)[nH]c2ncnn2c1=O [Example 11-87, 6-(1-methylethyl)-5-[1-methyl-3-(trifluoromethyl)-1H-pyrazol-5-yl][1,2,4]triazolo[1,5-a]pyrimidin-7(4H)-one] | 5.91
29 | CC(C)c1c(-c2ccc(-c3ccncc3)cc2)[nH]c2ncnn2c1=O [Example 11-88, 6-(1-methylethyl)-5-(4-pyridin-4-ylphenyl)[1,2,4]triazolo[1,5-a]pyrimidin-7(4H)-one] | 8.07
30 | CC(C)c1c(-c2ccc3ncn(C4CC4)c3c2)[nH]c2ncnn2c1=O [Example 11-89, 5-(1-cyclopropyl-1H-benzimidazol-6-yl)-6-(1-methylethyl)[1,2,4]triazolo[1,5-a]pyrimidin-7(4H)-one] | 7.67
